In PMC3713598, “Renal Protective Role of Xiexin Decoction with Multiple Active Ingredients Involves Inhibition of Inflammation through Downregulation of the Nuclear Factor-κB Pathway in Diabetic Rats” (Evidence-based Complementary and Alternative Medicine : eCAM, 2013):
Where two headings read alike, the source gives them in different places.

Columns and labels:
gut microbes = system: gut microbes; set-up: method as in PMID 21915347, PMID 22880019; settings: by regulation of gut microbes; cited from earlier work
[1] = Pharmacokinetics of XXD ingredients in diabetic rat plasma (LC-MS/MS); type: in vivo; settings: diabetic rats; for AUC(0-t) / Cmax: male, Sprague-Dawley, rat, po, plasma, mean ± SD n = 8; for AUC(0-t): read-out: AUC0–24 h; for Cmax: read-out: C max
Method: (§1) Male Sprague-Dawley rats (90−100 g) were purchased from the Shanghai Slac Laboratory Animal Co. (Shanghai, China). The rats were housed in an air-conditioned room at 22–24°C under a 12-h dark/light cycle and were given food and water at libitum. All animal experiments were conducted in accordance with the institutional guidelines for the care and use of laboratory animals at Shanghai University of TCM. After 1-week adaptation, animals were divided into a normal control (NC) group fed a standard diet and a high-fat group received a high-fat diet. After 4 weeks, rats on the high-fat diet were treated with streptozotocin (40 mg/kg, intraperitoneal injection). […] In the clinical practice of TCM, XXD is usually prescribed at a daily dose of 46 g of herbal materials (amount to 12 g extract) for diabetic patient. When this human dose was converted into an animal dose (a person of 60 kg, and a conversion factor of 6.25 between human and rat), it was equivalent to the low dose (1.25 g/kg extract) used in this study. NC and DM were treated with vehicle (normal saline) in a matched volume. All the rats were administered the drugs via intragastric gavage (ig) once a day, for 12 weeks.
The rats treated with XXD for 12 weeks were fasted with free access to water for 12 h before the PK experiments. Blood samples were collected before dosing and at 0, 0.25, 0.5, 1, 2, 4, 6, 12, and 24 h following administration. A validated liquid chromatography-tandem mass spectrometry (LC-MS/MS) method was applied to simultaneously determine the concentration of 11 ingredients (coptisine, jatrorrhizine, berberine, palmatine, baicalin, baicalein, wogonoside, wogonin, rhein, emodin, and aloeemodin) in blood plasma. The plasma concentration-time data were analysed by noncompartmental methods with the WinNonLin software package (Pharsight Corporation, Mountain View, CA, USA) to determine PK parameters.

diabetic mouse kidney = system: diabetic mouse kidney; set-up: method as in PMID 22483555, PMID 20447389; settings: cited from earlier work
diabetic nephropathy = settings: cited from earlier work
diabetic rats [2] = assay: Metabolic parameters in diabetic rats (high-fat diet and streptozotocin); type: in vivo, rat; settings: for Serum triglyceride: DM 1.1 ± 0.6; for Serum cholesterol: DM 1.5 ± 0.2; for HbA1c: DM 7.2 ± 0.3; for FBG: DM 22.3 ± 2.8; for GAUC (area under the blood glucose response curve): DM 117.1 ± 6.4
Method: (§3) After 1-week adaptation, animals were divided into a normal control (NC) group fed a standard diet and a high-fat group received a high-fat diet. After 4 weeks, rats on the high-fat diet were treated with streptozotocin (40 mg/kg, intraperitoneal injection). […] NC and DM were treated with vehicle (normal saline) in a matched volume. All the rats were administered the drugs via intragastric gavage (ig) once a day, for 12 weeks.
At 12 weeks, FBG and area under the blood glucose response curve (GAUC) were measured by glucose oxidase method. HbA1c was determined by HPLC (Biorad, Richmond, CA, USA). Serum creatinine, urine creatinine, serum total cholesterol, and triglyceride levels were measured using an automatic biochemistry analyser (Olympus-2000, Tokyo, Japan). Creatinine clearance was calculated.

MCP-1 = assay: Renal MCP-1 protein and mRNA expression in diabetic rats; type: in vivo, rat; settings: XXD 1.25 and 2.5 g/kg, losartan 10 mg/kg, metformin 100 mg/kg ig once a day, 12 weeks; compared with DM
Method: as §1, with “rats (90-100” for “rats (90−100”, “at 22-24°C” for “at 22–24°C”, “injection). All diabetic rats with fasting blood glucose (FBG) levels above 16.7 mmol/L were then randomly divided into 5 groups: diabetic model control (DM);” for “injection).”, “study. […] The membrane-bound antibody was detected by incubation with chemiluminescent reagent plus (Perkin Elmer Life Sciences, Boston, MA, USA)” for “study. NC”, “and” for “and DM were treated with vehicle (normal saline) in a matched volume. All”, “the signal captured on X-ray film. […]” for “the rats were administered the drugs via intragastric gavage (ig) once a day, for 12 weeks.”

TNF-α = assay: Renal TNF-α level by ELISA in diabetic rats; type: in vivo, rat; settings: XXD 1.25 and 2.5 g/kg, losartan 10 mg/kg, metformin 100 mg/kg ig once a day, 12 weeks; compared with DM
Method: (§2) Male Sprague-Dawley rats (90-100 g) were purchased from the Shanghai Slac Laboratory Animal Co. (Shanghai, China). The rats were housed in an air-conditioned room at 22-24°C under a 12-h dark/light cycle and were given food and water at libitum. All animal experiments were conducted in accordance with the institutional guidelines for the care and use of laboratory animals at Shanghai University of TCM. After 1-week adaptation, animals were divided into a normal control (NC) group fed a standard diet and a high-fat group received a high-fat diet. After 4 weeks, rats on the high-fat diet were treated with streptozotocin (40 mg/kg, intraperitoneal injection). All diabetic rats with fasting blood glucose (FBG) levels above 16.7 mmol/L were then randomly divided into 5 groups: diabetic model control (DM); […] In the clinical practice of TCM, XXD is usually prescribed at a daily dose of 46 g of herbal materials (amount to 12 g extract) for diabetic patient. When this human dose was converted into an animal dose (a person of 60 kg, and a conversion factor of 6.25 between human and rat), it was equivalent to the low dose (1.25 g/kg extract) used in this study. […] Tumor necrosis factor α (TNF-α), IL-6 and AGEs protein levels in renal tissue were measured using commercial ELISA kits (R&D, Minneapolis, MN, USA) according to the manufacturer's instructions.

ICAM-1 = assay: Renal ICAM-1 protein and mRNA expression in diabetic rats; type: in vivo, rat; settings: XXD 1.25 and 2.5 g/kg, losartan 10 mg/kg, metformin 100 mg/kg ig once a day, 12 weeks; compared with DM
Method: as §2, with “The membrane-bound antibody was detected by incubation with chemiluminescent reagent plus (Perkin Elmer Life Sciences, Boston, MA, USA)” for “Tumor necrosis factor α (TNF-α), IL-6”, “and” for “and AGEs protein levels in renal tissue were measured using commercial ELISA kits (R&D, Minneapolis, MN, USA) according to”, “signal captured on X-ray film. […]” for “manufacturer's instructions.”

diabetic rats [3] = assay: Renal histopathology (PAS) and electron microscopy in diabetic rats; type: in vivo, rat; settings: XXD 1.25 and 2.5 g/kg, losartan 10 mg/kg, metformin 100 mg/kg ig once a day, 12 weeks; compared with DM
Method: Male Sprague-Dawley rats (90-100 g) were purchased from the Shanghai Slac Laboratory Animal Co. (Shanghai, China). The rats were housed in an air-conditioned room at 22-24°C under a 12-h dark/light cycle and were given food and water at libitum. All animal experiments were conducted in accordance with the institutional guidelines for the care and use of laboratory animals at Shanghai University of TCM. After 1-week adaptation, animals were divided into a normal control (NC) group fed a standard diet and a high-fat group received a high-fat diet. After 4 weeks, rats on the high-fat diet were treated with streptozotocin (40 mg/kg, intraperitoneal injection). All diabetic rats with fasting blood glucose (FBG) levels above 16.7 mmol/L were then randomly divided into 5 groups: diabetic model control (DM); […] In the clinical practice of TCM, XXD is usually prescribed at a daily dose of 46 g of herbal materials (amount to 12 g extract) for diabetic patient. […] The ratio of the mesangial matrix area to glomerular area (M/G) was determined by quantitative Image-Pro Plus software (PAX-it; […], Villa Park, IL, USA). Briefly, 20 glomeruli were randomly selected from each section, and positive signals within the selected glomerulus were highlighted, measured, and quantified as percent positive area of the entire glomerulus. […]

RAGE = assay: Renal RAGE expression by western blot in diabetic rats; type: in vivo, rat; settings: XXD 1.25 and 2.5 g/kg, metformin 100 mg/kg ig once a day, 12 weeks; compared with DM
Method: as §1, with “NC and DM were treated with vehicle (normal saline) in a matched volume. All the rats were administered the drugs via intragastric gavage (ig) once a day, for 12 weeks.” left out
Kidney tissue was homogenized in radioimmunoprecipitation assay buffer containing 0.5% Nonidet P-40, 0.5% sodium deoxycholate, 0.1% SDS, 10 mmol/L EDTA, and protease inhibitors. […] The membrane-bound antibody was detected by incubation with chemiluminescent reagent plus (Perkin Elmer Life Sciences, Boston, MA, USA) and the signal captured on X-ray film. […]

AGEs = assay: Renal AGEs level by ELISA in diabetic rats; type: in vivo, rat; settings: XXD 1.25 and 2.5 g/kg, metformin 100 mg/kg ig once a day, 12 weeks; compared with DM
Method: as §1
Tumor necrosis factor α (TNF-α), IL-6 and AGEs protein levels in renal tissue were measured using commercial ELISA kits (R&D, Minneapolis, MN, USA) according to the manufacturer's instructions.

TGF-β1 = assay: Renal TGF-β1 protein and mRNA expression in diabetic rats; type: in vivo, rat; settings: XXD 1.25 and 2.5 g/kg, losartan 10 mg/kg ig once a day, 12 weeks; compared with DM
Method: as §2, with “The membrane-bound antibody was detected by incubation with chemiluminescent reagent plus (Perkin Elmer Life Sciences, Boston, MA, USA)” for “Tumor necrosis factor α (TNF-α), IL-6”, “and” for “and AGEs protein levels in renal tissue were measured using commercial ELISA kits (R&D, Minneapolis, MN, USA) according to”, “signal captured on X-ray film. […]” for “manufacturer's instructions.”

NF-κB signalling pathway = assay: Renal NF-κB signalling pathway (western blot, real-time PCR) in diabetic rats; type: in vivo, rat; settings: XXD 1.25 and 2.5 g/kg, losartan 10 mg/kg ig once a day, 12 weeks; compared with DM
Method: as §2, with “The membrane-bound antibody was detected by incubation with chemiluminescent reagent plus (Perkin Elmer Life Sciences, Boston, MA, USA)” for “Tumor necrosis factor α (TNF-α), IL-6”, “and” for “and AGEs protein levels in renal tissue were measured using commercial ELISA kits (R&D, Minneapolis, MN, USA) according to”, “signal captured on X-ray film. […]” for “manufacturer's instructions.”

IL-6 = assay: Renal IL-6 level by ELISA in diabetic rats; type: in vivo, rat; settings: XXD 1.25 and 2.5 g/kg, losartan 10 mg/kg ig once a day, 12 weeks; compared with DM
Method: as §2

diabetic rats [4] = assay: Urinary albumin excretion and renal function in diabetic rats; type: in vivo, rat
Method: as §3
At 12 weeks, FBG and area under the blood glucose response curve (GAUC) were measured by glucose oxidase method. HbA1c was determined by HPLC (Biorad, Richmond, CA, USA). Serum creatinine, urine creatinine, serum total cholesterol, and triglyceride levels were measured using an automatic biochemistry analyser (Olympus-2000, Tokyo, Japan). Creatinine clearance was calculated. The kidneys were removed, weighed, and parts of them frozen at −80°C until processing for Western blot and RNA extraction, while other parts were removed for histological examination.

[5] = XXD 1.25 g/kg intragastric gavage for 12 weeks
[6] = XXD 2.5 g/kg intragastric gavage for 12 weeks
[7] = metformin 100 mg/kg ig once a day 12 weeks
[8] = losartan 10 mg/kg ig once a day 12 weeks

COc1ccc2cc3[n+](cc2c1OC)CCc1cc2c(cc1-3)OCO2 [Berberine, berberine]
blood lipid levels (gut microbes): reduced | shape of plasma concentration-time curve ([1]; after ig administration of XXD for 12 weeks): double peaks | AUC(0-t) [1, 5]: 757 ± 389 ng·h/mL | Cmax [1, 5]: 51 ± 20 ng/mL | AUC(0-t) [1, 6]: 1730 ± 1040 ng·h/mL | Cmax [1, 6]: 118 ± 78 ng/mL | TGF-β1, ICAM-1, and VCAM-1 protein expression (diabetic mouse kidney): downregulating | renal AGE generation (diabetic mouse kidney): inhibiting | IKBα protein level (diabetic mouse kidney; diabetic mouse kidney): increased | NF-κBp65 protein level (diabetic mouse kidney; diabetic mouse kidney): decreased | anti-DN effects (diabetic nephropathy): exhibited anti-DN effects

CN(C)C(=N)N=C(N)N [metformin]
Serum triglyceride (diabetic rats [2]; [7]): 1.0 ± 0.3 mmol/L | Serum cholesterol (diabetic rats [2]; [7]): 1.2 ± 0.4 mmol/L | HbA1c (diabetic rats [2]; [7]): 6.6 ± 0.5 % | FBG (diabetic rats [2]; [7]): 9.4 ± 2.5 mmol/L | GAUC (area under the blood glucose response curve) (diabetic rats [2]; [7]): 70.9 ± 9.5 mmol·h/L | renal protein and mRNA MCP-1 expression (MCP-1): significant reduction | renal TNF-α level (TNF-α): significant reduction | renal protein and mRNA ICAM-1 expression (ICAM-1): significant reduction | renal pathological changes (glomerular hypertrophy, mesangial matrix expansion, M/G, basement membrane thickening) (diabetic rats [3]): ameliorated | renal RAGE expression (RAGE): downregulated | total renal AGEs content (AGEs): significantly reduced

CCCCc1nc(Cl)c(CO)n1Cc1ccc(-c2ccccc2-c2nn[nH]n2)cc1 [losartan]
renal TGF-β1 protein and mRNA expression (TGF-β1): significantly downregulated | Serum triglyceride (diabetic rats [2]; [8]): 0.7 ± 0.3 mmol/L | Serum cholesterol (diabetic rats [2]; [8]): 1.3 ± 0.2 mmol/L | HbA1c (diabetic rats [2]; [8]): 6.9 ± 0.2% | FBG (diabetic rats [2]; [8]): 21.6 ± 4.4 mmol/L | GAUC (area under the blood glucose response curve) (diabetic rats [2]; [8]): 111.8 ± 11.1 mmol·h/L | renal protein and mRNA MCP-1 expression (MCP-1): significantly downregulated | renal TNF-α level (TNF-α): significantly downregulated | renal protein and mRNA ICAM-1 expression (ICAM-1): significantly downregulated | renal pathological changes (glomerular hypertrophy, mesangial matrix expansion, M/G, basement membrane thickening) (diabetic rats [3]): ameliorated | renal IKKα, phospho-IκBα, phospho-NF-κBp65, NF-κBp65 and IκBα protein expression changes (NF-κB signalling pathway): significantly ameliorated | renal NF-κBp65 mRNA expression (NF-κB signalling pathway): downregulated | renal IL-6 level (IL-6): significantly downregulated | urinary albumin excretion (UAE) (diabetic rats [4]; XXD 1.25 and 2.5 g/kg, losartan 10 mg/kg, metformin 100 mg/kg ig once a day, 12 weeks, compared with DM): significantly reduced | Kidney weight/body weight (diabetic rats [4]; losartan 10 mg/kg ig once a day 12 weeks, DM 1.18 ± 0.06): 1.00 ± 0.05 %
